According to the NIST ThermoML archive (doi:10.1016/j.fluid.2013.01.022):

Assays:
[1] = 298.15 K; 101.33 kPa; Liquid; Vibrating tube method
[2] = refractive index (Na D-line) (dimensionless); settings: 298.15 K; 101.33 kPa; Liquid; Standard Abbe refractometry
[3] = xn = mol fraction of the nth substance listed; settings: 298.15 K, 101 kPa, Liquid, Vibrating tube method
[4] = refractive index (Na D-line) (dimensionless); xn = mol fraction of the nth substance listed; settings: 298.15 K, 101 kPa, Liquid, Standard Abbe refractometry

CC(CC(C)(C)C)CP(=O)([O-])CC(C)CC(C)(C)C.CCCCCCCCCCCCCC[P+](CCCCCC)(CCCCCC)CCCCCC
Settings	mass density [kg/m3]	refractive index
[1]	886.43	–
[2]	–	1.47125

CC(CC(C)(C)C)CP(=O)([O-])CC(C)CC(C)(C)C.CCCCCCCCCCCCCC[P+](CCCCCC)(CCCCCC)CCCCCC + CCO
Settings	mass density, [3] [kg/m3]	refractive index, [4]
x2 = 0.051	886.25	1.47094
x2 = 0.1022	886.05	1.47076
x2 = 0.2136	885.54	1.46988
x2 = 0.305	885	1.46895
x2 = 0.4024	884.17	1.46802
x2 = 0.5019	882.93	1.46563
x2 = 0.5976	881.05	1.46367
x2 = 0.6989	877.74	1.459
x2 = 0.7998	871	1.45104
x2 = 0.9003	854.34	1.44331
x2 = 0.9499	840.31	1.43816

CC(CC(C)(C)C)CP(=O)([O-])CC(C)CC(C)(C)C.CCCCCCCCCCCCCC[P+](CCCCCC)(CCCCCC)CCCCCC + CCOC(C)(C)C
Settings	mass density, [3] [kg/m3]	refractive index, [4]
x2 = 0.0425	886	1.4696
x2 = 0.0954	885.1	1.4691
x2 = 0.2026	882.46	1.4673
x2 = 0.2904	879.48	1.4653
x2 = 0.4013	874.66	1.4623
x2 = 0.4971	869.23	1.4587
x2 = 0.6023	861.11	1.4539
x2 = 0.7002	850.33	1.4464
x2 = 0.7999	832.96	1.435
x2 = 0.8998	802.31	1.4225
x2 = 0.9503	776.41	1.4154

CCOC(C)(C)C [2-ethoxy-2-methylpropane]
Settings	mass density [kg/m3]	refractive index
[1]	735.85	–
[2]	–	1.37358

CCO [ethanol]
Settings	mass density [kg/m3]	refractive index
[1]	785.22	–
[2]	–	1.35925

CCCCCCCCCCCCCC[P+](CCCCCC)(CCCCCC)CCCCCC.[Cl-] [trihexyl(tetradecyl)phosphonium chloride]
Settings	mass density [kg/m3]	refractive index
[1]	891.82	–
[2]	–	1.48175

CCCCCCCCCCCCCC[P+](CCCCCC)(CCCCCC)CCCCCC.[Cl-] [trihexyl(tetradecyl)phosphonium chloride] + CCOC(C)(C)C
Settings	mass density, [3] [kg/m3]	refractive index, [4]
x2 = 0.0473	890.24	1.4804
x2 = 0.1037	888.11	1.4788
x2 = 0.1961	884.09	1.4762
x2 = 0.3076	878.3	1.4727
x2 = 0.3968	872.72	1.4688
x2 = 0.5075	864.28	1.4624
x2 = 0.5981	855.37	1.4562
x2 = 0.6992	841.62	1.4463
x2 = 0.7993	821.34	1.432
x2 = 0.8987	790.03	1.4104
x2 = 0.9496	767.05	1.3943
